Key:
[1] = system: lipid peroxidation (LPO) of rat brain homogenate; assay: Lipid peroxidation (LPO) of rat brain homogenate, TBARS test; assay type: biochemical; settings: substances at 100 μM, mean ± SEM; for % of Activity, Inhibition of LPO, Fe (II): Fe (II)-induced; for % of Activity, Inhibition of LPO, t-BHP: t-BHP-induced
Protocol: To obtain the brain homogenate, rats preliminarily anesthetized with CO2 were decapitated with a guillotine. The brain was homogenized in a buffer containing KCl (120 mM) and HEPES (20 mM), pH = 7.4 at 4 °C, and centrifuged at 1500 rpm to obtain a supernatant. The protein was quantified according to the standard microbiuret method.
To investigate the effect of the compounds on lipid peroxidation (LPO) of rat brain homogenate, we used the modified version of the TBARS test, which is based on the reaction of 2-thiobarbituric acid with the end LPO product—malonic dialdehyde (MDA). The plate well, according to the experimental scheme, contained the compounds under study (100 μM), rat brain homogenate (2 mg/mL), as well as ferrous iron ions ([…]) at a concentration of 500 μM and 1.6 mM tert-butyl hydroxyperoxide as an initiator. After 30 min of incubation at 37 °C, TBARS reagent was added to all samples, incubated for 90 min at 90 °C, and centrifuged at 6000 rpm for 15 min. The optical density of the selected supernatant was measured on a Victor 3 plate reader (Perkin Elmer) at λ = 540 nm.
A rat brain homogenate preparation containing fragments of cell membranes was used as a model system to investigate the antioxidant activity of the hydroxamic acids. To initiate the process of lipid peroxidation, ferrous ions were used to trigger the Fenton reaction, during which the iron valence changes and a highly reactive hydroxyl radical is formed, and tert-butyl hydroxyperoxide as a direct source of free radicals.

[2] = DPPH test of antiradical activity; settings: substances at 100 μM, mean ± SEM
Protocol: The DPPH test was used to examine antiradical activity based on the ability of a stable chromogen radical of 2,2-diphenyl-1-picrylhydrazyl (DPPH) to remove a hydrogen atom, which is accompanied by a change in the absorption maximum in the electronic absorption spectra. The amount of reduced DPPH was measured using a Cytation ™ 3 multifunctional plate analyzer (BioTek Instruments, Inc., Winooski, VT, USA) at a wavelength of 517 nm.
The antiradical activity of the test compounds was evaluated by the DPPH test, based on the ability of antioxidants to donate an electron to the stable chromogen radical DPPH, converting it into a nonradical form and neutralizing its activity. […] The chromogenic free radical DPPH used in this test has a large size, and substances even with a similar chemical structure may have different antiradical properties due to spatially difficult access.

[3] = biological target: T1, HDAC6 (Homo sapiens, UniProt Q9UBN7); assay: HDAC6 enzyme activity, FLUOR DE LYS fluorometric kit; assay type: biochemical; settings: mean ± SEM; read-out: IC50 HDAC6 Inhibitory Activity
T1 construct: purchased Enzo Life Sciences (Enzo Biochem, New York, NY, USA)
T1 sequence (Q9UBN7 1-1215): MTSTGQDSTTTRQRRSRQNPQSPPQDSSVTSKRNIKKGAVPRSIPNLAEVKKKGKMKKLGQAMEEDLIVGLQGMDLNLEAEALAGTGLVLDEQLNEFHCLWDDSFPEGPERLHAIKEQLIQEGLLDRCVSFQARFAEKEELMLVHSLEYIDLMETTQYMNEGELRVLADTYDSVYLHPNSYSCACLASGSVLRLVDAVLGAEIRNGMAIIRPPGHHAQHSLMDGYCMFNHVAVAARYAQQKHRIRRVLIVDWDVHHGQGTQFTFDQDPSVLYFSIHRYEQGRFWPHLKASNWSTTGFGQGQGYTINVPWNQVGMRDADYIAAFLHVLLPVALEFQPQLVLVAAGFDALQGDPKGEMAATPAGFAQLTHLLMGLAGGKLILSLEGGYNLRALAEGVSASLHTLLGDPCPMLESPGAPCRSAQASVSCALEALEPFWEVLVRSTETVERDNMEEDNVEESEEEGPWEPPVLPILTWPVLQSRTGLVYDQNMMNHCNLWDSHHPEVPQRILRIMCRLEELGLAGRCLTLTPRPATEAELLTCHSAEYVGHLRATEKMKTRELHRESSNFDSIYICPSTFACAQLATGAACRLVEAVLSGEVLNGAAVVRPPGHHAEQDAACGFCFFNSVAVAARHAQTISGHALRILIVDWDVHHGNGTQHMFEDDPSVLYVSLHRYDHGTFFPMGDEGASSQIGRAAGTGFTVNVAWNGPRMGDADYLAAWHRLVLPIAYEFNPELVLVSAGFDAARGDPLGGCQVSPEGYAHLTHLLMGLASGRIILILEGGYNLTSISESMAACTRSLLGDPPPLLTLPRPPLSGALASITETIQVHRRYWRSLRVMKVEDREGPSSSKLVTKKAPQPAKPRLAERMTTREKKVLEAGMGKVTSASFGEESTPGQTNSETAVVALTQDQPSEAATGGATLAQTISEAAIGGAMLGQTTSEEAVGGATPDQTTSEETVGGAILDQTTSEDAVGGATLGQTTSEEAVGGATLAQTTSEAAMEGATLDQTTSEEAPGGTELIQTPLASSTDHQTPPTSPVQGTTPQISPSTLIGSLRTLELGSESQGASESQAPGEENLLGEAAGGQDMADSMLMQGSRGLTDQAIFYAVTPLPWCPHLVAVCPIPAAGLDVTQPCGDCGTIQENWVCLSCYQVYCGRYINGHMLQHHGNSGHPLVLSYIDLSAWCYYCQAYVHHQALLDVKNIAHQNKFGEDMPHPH

[4] = system: β-amyloid 1–40; assay: β-amyloid 1–40 aggregation, Thioflavin T fluorescence; assay type: biochemical; settings: 100 μM, 72 h incubation
Protocol: (§1) The effect of the studied compounds on the aggregation of β-amyloid (1–40/1–42) was analyzed using the method of recording Thioflavin T fluorescence (10 µM) for 72 h at 37 °C. The fluorescence signal was measured using a multifunctional flatbed analyzer, the Cytation ™ 3 (BioTek Instruments, Inc., Winooski, VT, USA), at λex = 450 nm, λem = 480 nm.
(§2) The effect of hydroxamic acids on the stage of aggregation of the pathological β-amyloid peptide was investigated for 72 h using two model systems—fragments Aβ1–40 and Aβ1–42. The fluorophore Thioflavin T was used as an indicator of the ongoing fibrillation process, the interaction of which with proteins in the state of amyloid fibrils leads to an increase in the fluorescence signal.

[5] = system: T2, β-amyloid 1–42; assay: β-amyloid 1–42 aggregation, Thioflavin T fluorescence; assay type: biochemical; settings: 100 μM, 72 h incubation
T2 construct: fragments Aβ1–40 and Aβ1–42
Protocol: as §1, §2

[6] = system: SH-SY5Y cells; assay: MTT cell viability, SH-SY5Y; assay type: cell-based; settings: Homo sapiens, MTT test
Protocol: (§3) The effect of the hydroxamic acids on the viability of cells obtained from human embryonic kidneys, HEK 293, as well as the native form of human neuroblastoma, SH-SY5Y, was evaluated in the MTT test. Using a multifunctional flatbed analyzer, Cytation™3 (BioTek Instruments, Inc., Winooski, VT, USA), the optical density was determined at a wavelength of 530 nm. Based on the dose-dependent curves, the concentration values leading to 50% inhibition of cell population growth (IC50) were calculated.
(§4) Due to the fact that most compounds of the class of hydroxamic acids have high cytotoxic activity and are mainly used as anticancer drugs, their use as neuroprotective drugs is limited. Since the goal of our work was to search for agents for the pharmacological correction of neurodegenerative diseases, a necessary part of the biological activity study of the synthesized hydroxamic acids was to determine their effect on the survival of cell cultures. In our work, we used neuron-like neuroblastoma cells SH-SY5Y and a healthy cell line isolated from the human embryonic kidney, HEK 293.

[7] = system: HEK 293 cells; assay: MTT cell viability, HEK 293; assay type: cell-based; settings: Homo sapiens, HEK293; HEK-293, MTT test
Protocol: as §3, §4

| IC50 [3] | IC50 [6] | melting point | Compound | % of Activity, Inhibition of LPO, Fe (II) [1] | % of Activity, Inhibition of LPO, t-BHP [1] | % of Activity, Antiradical Activity [2] | Effect on β-amyloid 1–40 aggregation [4] | Effect on β-amyloid 1–42 aggregation [5] | IC50 [7] |
| --- | --- | --- | --- | --- | --- | --- | --- | --- | --- |
| 0.74 ± 0.01 µM | > 100 µM | 133.2 °C | O=C(CCCCCCCC(=O)NC1C2CC3CC(C2)CC1C3)NO (stereo not drawn) [compound 16, N^1-(Adamantan-2-yl)-N^9-Hydroxynonanediamide] | 26.41 ± 2.58% | 16.27 ± 0.42% | - (The ‘-’ mark indicates the lack of activity of the test substances (≤10%) in a particular test) | noticeable fibrillation inhibition | noticeable fibrillation inhibition | 49.5 ± 3.43 µM |
| 18 ± 1.02 µM | 64.2 ± 4.1 µM | 202.5 °C | CC1(C)[C@@H]2CCC1(C)[C@H](NC(=O)/C=C/c1ccc(C(=O)NO)cc1)C2 [compound 23, N-Hydroxy-4-((E)-3-Oxo-3-(((2R,4R)-1,7,7-Trimethylbicyclo[2.2.1]heptan-2-yl)amino)prop-1-en-1-yl)benzamide] | 32.91 ± 1.12% | 18.26 ± 4.90% | 20.14 ± 1.28% | noticeable fibrillation inhibition | noticeable fibrillation inhibition | 68.3 ± 2.22 µM |

Reference: paper PMC8623418, “Novel Multitarget Hydroxamic Acids with a Natural Origin CAP Group against Alzheimer’s Disease: Synthesis, Docking and Biological Evaluation” (Pharmaceutics, 2021)
